Measurements published in patent US20260226068A1, “IMIDAZOTRIAZINE IL-17A MODULATORS AND USES THEREOF” (DICE ALPHA, INC., priority 2023, published 2026).

Tests used:
[1] = target: T1, IL-17A/F (Homo sapiens, UniProt Q16552+Q96PD4); assay: IL-17A/F HEK-Blue cell assay (SEAP reporter); type: cell-based; details: HEK-Blue IL-17A reporter cells, IL17A/F 5 ng/mL, 20 hours, SEAP read at A630; read-out: HEK-Blue IL17AF (IC50 for IL-17A/F inhibition)
T1 construct: purchased R&D Systems
T1 sequence (Q16552 24-155): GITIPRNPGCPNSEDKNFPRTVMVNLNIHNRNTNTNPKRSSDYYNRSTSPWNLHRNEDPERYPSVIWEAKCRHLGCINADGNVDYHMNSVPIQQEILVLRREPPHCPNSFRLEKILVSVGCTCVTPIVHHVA
T1 sequence (Q96PD4 31-163): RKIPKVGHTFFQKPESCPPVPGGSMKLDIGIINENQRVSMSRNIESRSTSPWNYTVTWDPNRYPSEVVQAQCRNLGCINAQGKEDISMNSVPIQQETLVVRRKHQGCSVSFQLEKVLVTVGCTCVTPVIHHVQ
Protocol: (§1) The HEK-Blue IL-17A reporter cell line (Fisher #NC 1408637) was used for cell-based IL-17A/A inhibition assays. Cells were grown and prepared for assays according to the manufacturer's instructions. This cell line consists of HEK 293 cells that were designed to expressed IL-17RA, IL-17RC, and the Act1 adapter molecule, the combination of which, when stimulated by IL-17A/A or IL17A/F activates a […] promoter and drives expression of the recombinant Secreted Alkaline Phosphatase (SEAP) gene. Media from the cells is then added to a development reagent (Quanti-Blue Substrate, Fisher #NC971 1613), and read at A630.
(§2) Compounds were dispensed in DMSO to an empty clear 384-well tissue culture plate in a titration ranging from 10 μM to 27 pM, with DMSO added to every well to a final concentration of […]. Cells were then added to the plate (45 μL/well at a concentration of 280,000 cells/mL). IL17A/A (Genscript #Z03228) or IL17A/F (R&D Systems) was added to the plate to a final concentration of 5 ng/mL and a final well volume of 50 μL. The cells, compound, and IL-17A/A or IL17A/F were then incubated for 20 hours before media was removed for SEAP analysis. The resulting inhibition curve was then analyzed using Dotmatics' integrated 4-parameter fit screening protocol to generate IC50 values.
(§3) Table 2 includes IC50 values for IL-17A/A and IL-17A/F inhibition of selected compounds; with compounds having a IC50 of A<100 nM; B 100-1000 nM; and C>1000 nM.

[2] = target: T2, IL-17A/A (Homo sapiens, UniProt Q16552); assay: IL-17A/A HEK-Blue cell assay (SEAP reporter); type: cell-based; details: HEK-Blue IL-17A reporter cells, IL17A/A 5 ng/mL, 20 hours, SEAP read at A630; read-out: HEK-Blue IL17AA (IC50 for IL-17A/A inhibition)
T2 construct: purchased Genscript Z03228
T2 sequence (Q16552 24-155): T1 sequence (Q16552 24-155)
Protocol: as §1, §2, §3

SMILES	IC50 [1]	IC50 [2]
CCn1nccc1C(=O)N[C@H](c1cn2nc(C[C@H]3C[C@@H](C(F)(F)F)CNC3=O)c(C3CCOC3)nc2n1)[C@@H]1CCCC(F)(F)C1 (single isomer, unassigned) [Compound 72]	0.1 to 1 µM	< 0.1 µM
O=C(N[C@H](c1cn2nc(C[C@H]3C[C@@H](C(F)(F)F)CNC3=O)cnc2n1)C1CCC(F)(F)CC1)c1nonc1[C@H]1CC1(F)F (single isomer, unassigned) [Compound 76]	> 1 µM	0.1 to 1 µM
O=C(N[C@H](c1cn2nc(C[C@H]3C[C@@H](C(F)(F)F)CNC3=O)cnc2n1)C1CCC(F)(F)CC1)c1nonc1[C@@H]1CC1(F)F (single isomer, unassigned) [Compound 77]	> 1 µM	< 0.1 µM
CC(C)n1nccc1C(=O)N[C@H](c1cn2nc(CC3C[C@@H](C(F)(F)F)CNC3=O)c(N3CCOCC3)nc2n1)C1CCC(F)(F)CC1 (single isomer, unassigned) [Compound 79]	0.1 to 1 µM	< 0.1 µM
CC(C)n1nccc1C(=O)N[C@H](c1cn2nc(CC3C[C@@H](C(F)(F)F)CNC3=O)c(N3CCOCC3)nc2n1)C1CCC(F)(F)CC1 (single isomer, unassigned) [Compound 80]	> 1 µM	< 0.1 µM
CCn1nccc1C(=O)N[C@H](c1cn2nc(CC3C[C@@H](C(F)(F)F)CNC3=O)c(N3CC4CC(C3)O4)nc2n1)C1CCC(F)(F)CC1 (single isomer, unassigned) [Compound 81]	0.1 to 1 µM	< 0.1 µM
CCn1nccc1C(=O)N[C@H](c1cn2nc(CC3C[C@@H](C(F)(F)F)CNC3=O)c(N3C[C@H]4CC[C@@H](C3)O4)nc2n1)C1CCC(F)(F)CC1 (single isomer, unassigned) [Compound 83]	0.1 to 1 µM	< 0.1 µM
CCn1nccc1C(=O)N[C@H](c1cn2nc(CC3C[C@@H](C(F)(F)F)CNC3=O)c(N3CC4CC(C3)O4)nc2n1)[C@H]1CCCC(F)(F)C1 (single isomer, unassigned) [Compound 92]	0.1 to 1 µM	< 0.1 µM
CCn1nccc1C(=O)N[C@H](c1cn2nc(CC3C[C@@H](C(F)(F)F)CNC3=O)c(N3CCOCC3)nc2n1)[C@@H]1CCCC(F)(F)C1 (single isomer, unassigned) [Compound 94]	0.1 to 1 µM	< 0.1 µM
CCn1nccc1C(=O)N[C@H](c1cn2nc(CC3C[C@@H](C(F)(F)F)CNC3=O)c(N3CC4CC(C3)O4)nc2n1)[C@@H]1CCCC(F)(F)C1 (single isomer, unassigned) [Compound 96]	0.1 to 1 µM	< 0.1 µM
CCn1nccc1C(=O)N[C@H](c1cn2nc(CC3C[C@@H](C(F)(F)F)CNC3=O)c(N3CC4CC(C3)O4)nc2n1)[C@@H]1CCCC(F)(F)C1 (single isomer, unassigned) [Compound 97]	> 1 µM	< 0.1 µM
CC(C)n1nccc1C(=O)N[C@H](c1cn2nc(CC3C[C@@H](C(F)(F)F)CNC3=O)c(N3CCOCC3)nc2n1)[C@H]1CC[C@H](C)CC1 (single isomer, unassigned) [Compound 100]	< 0.1 µM	< 0.1 µM
CC(C)n1nccc1C(=O)N[C@H](c1cn2nc(CC3C[C@@H](C(F)(F)F)CNC3=O)c(N3CCOCC3)nc2n1)[C@H]1CC[C@H](C)CC1 (single isomer, unassigned) [Compound 101]	0.1 to 1 µM	< 0.1 µM
CCn1nccc1C(=O)N[C@H](c1cn2nc(CC3C[C@@H](C(F)(F)F)CNC3=O)c(N3CC4CC(C3)O4)nc2n1)[C@H]1CC[C@H](C)CC1 (single isomer, unassigned) [Compound 102]	< 0.1 µM	< 0.1 µM
CCn1nccc1C(=O)N[C@H](c1cn2nc(CC3C[C@@H](C(F)(F)F)CNC3=O)c(N3CC4CC(C3)O4)nc2n1)[C@H]1CC[C@H](C)CC1 (single isomer, unassigned) [Compound 103]	0.1 to 1 µM	< 0.1 µM
CCn1nccc1C(=O)N[C@H](c1cn2nc(CC3C[C@@H](C(F)(F)F)CNC3=O)c(N3CC4CCC(C3)O4)nc2n1)[C@H]1CC[C@H](C)CC1 (single isomer, unassigned) [Compound 104]	< 0.1 µM	< 0.1 µM
CCn1nccc1C(=O)N[C@H](c1cn2nc(CC3C[C@@H](C(F)(F)F)CNC3=O)c(N3CC4CCC(C3)O4)nc2n1)[C@H]1CC[C@H](C)CC1 (single isomer, unassigned) [Compound 105]	0.1 to 1 µM	< 0.1 µM
CCn1nccc1C(=O)N[C@H](c1cn2nc(CC3C[C@@H](C(F)(F)F)CNC3=O)c(N3C[C@H]4C[C@@H]3CO4)nc2n1)[C@H]1CC[C@H](C)CC1 (single isomer, unassigned) [Compound 106]	> 1 µM	< 0.1 µM
CCn1nccc1C(=O)N[C@H](c1cn2nc(CC3C[C@@H](C(F)(F)F)CNC3=O)c(N3C[C@@H]4C[C@H]3CO4)nc2n1)[C@H]1CC[C@H](C)CC1 (single isomer, unassigned) [Compound 109]	0.1 to 1 µM	< 0.1 µM

Now from value to molecule:

IC50 [1]	IC50 [2]	SMILES
0.1 to 1 µM	< 0.1 µM	CCn1nccc1C(=O)N[C@H](c1cn2nc(C[C@H]3C[C@@H](C(F)(F)F)CNC3=O)c(C3CCOC3)nc2n1)[C@@H]1CCCC(F)(F)C1 (single isomer, unassigned) [Compound 73]
> 1 µM	< 0.1 µM	CCn1nccc1C(=O)N[C@H](c1cn2nc(CC3C[C@@H](C(F)(F)F)CNC3=O)c(N3CC4CC(C3)O4)nc2n1)C1CCC(F)(F)CC1 (single isomer, unassigned) [Compound 82]
0.1 to 1 µM	< 0.1 µM	CCn1nccc1C(=O)N[C@H](c1cn2nc(CC3C[C@@H](C(F)(F)F)CNC3=O)c(N3C[C@H]4CC[C@@H](C3)O4)nc2n1)C1CCC(F)(F)CC1 (single isomer, unassigned) [Compound 84]
> 1 µM	0.1 to 1 µM	CCn1nccc1C(=O)N[C@H](c1cn2nc(CC3C[C@@H](C(F)(F)F)CNC3=O)c(N3C[C@H]4C[C@@H]3CO4)nc2n1)C1CCC(F)(F)CC1 (single isomer, unassigned) [Compound 85]
0.1 to 1 µM	< 0.1 µM	CCn1nccc1C(=O)N[C@H](c1cn2nc(CC3C[C@@H](C(F)(F)F)CNC3=O)c(N3C[C@H]4C[C@@H]3CO4)nc2n1)C1CCC(F)(F)CC1 (single isomer, unassigned) [Compound 86]
0.1 to 1 µM	< 0.1 µM	CCn1nccc1C(=O)N[C@H](c1cn2nc(CC3C[C@@H](C(F)(F)F)CNC3=O)c(N3CCOCC3)nc2n1)[C@H]1CCCC(F)(F)C1 (single isomer, unassigned) [Compound 90]
0.1 to 1 µM	< 0.1 µM	CCn1nccc1C(=O)N[C@H](c1cn2nc(CC3C[C@@H](C(F)(F)F)CNC3=O)c(N3CCOCC3)nc2n1)[C@H]1CCCC(F)(F)C1 (single isomer, unassigned) [Compound 91]
0.1 to 1 µM	< 0.1 µM	CCn1nccc1C(=O)N[C@H](c1cn2nc(CC3C[C@@H](C(F)(F)F)CNC3=O)c(N3CC4CC(C3)O4)nc2n1)[C@H]1CCCC(F)(F)C1 (single isomer, unassigned) [Compound 93]
0.1 to 1 µM	< 0.1 µM	CCn1nccc1C(=O)N[C@H](c1cn2nc(CC3C[C@@H](C(F)(F)F)CNC3=O)c(N3CCOCC3)nc2n1)[C@@H]1CCCC(F)(F)C1 (single isomer, unassigned) [Compound 95]
< 0.1 µM	< 0.1 µM	CCn1nccc1C(=O)N[C@H](c1cn2nc(CC3C[C@@H](C(F)(F)F)CNC3=O)c(N3C[C@@H]4C[C@H]3CO4)nc2n1)C1CCC(F)(F)CC1 (single isomer, unassigned) [Compound 98]
> 1 µM	< 0.1 µM	CCn1nccc1C(=O)N[C@H](c1cn2nc(CC3C[C@@H](C(F)(F)F)CNC3=O)c(N3C[C@@H]4C[C@H]3CO4)nc2n1)C1CCC(F)(F)CC1 (single isomer, unassigned) [Compound 99]
0.1 to 1 µM	< 0.1 µM	CCn1nccc1C(=O)N[C@H](c1cn2nc(CC3C[C@@H](C(F)(F)F)CNC3=O)c(N3C[C@H]4C[C@@H]3CO4)nc2n1)[C@H]1CC[C@H](C)CC1 (single isomer, unassigned) [Compound 107]
< 0.1 µM	< 0.1 µM	CCn1nccc1C(=O)N[C@H](c1cn2nc(CC3C[C@@H](C(F)(F)F)CNC3=O)c(N3C[C@@H]4C[C@H]3CO4)nc2n1)[C@H]1CC[C@H](C)CC1 (single isomer, unassigned) [Compound 108]
